Like-named read-outs stand apart in the source and are kept apart here.
Columns and labels:
[1] = LD50 in the mouse by oral route; settings: in vivo
[2] = test system: hypothermic effect caused by reserpine; test: reserpine antagonism (reversal of the hypothermic effect caused by reserpine) in mice; assay type: in vivo; settings: Mus musculus, oral, reserpine 2 mg/kg i.p. 17 hours before
Procedure: The test used for determining antidepressant properties was reserpine antagonism, namely the reversal of the hypothermic effect caused by reserpine. This test was carried out on mice, using five animals per dose. 17 hours after the intraperitoneal administration of 2 mg/kg of reserpine, the peripheral body temperature was measured at an ambient temperature of 19° C. Then, the test compound was administered by the oral route, and the body temperature was measured after 1, 3, 5 and 7 hours had elapsed. A median effective dose (ED50) was determined for each period of measurement. This is the dose at which the body temperature of the animals treated with reserpine is brought closer to the normal temperature of the untreated control animals by 50%.

[3] = 1 hour, read-out: Reserpine antagonism, median effective dose (ED50) after 1 hr
[4] = 3 hours, read-out: Reserpine antagonism, median effective dose (ED50) after 3 hrs
[5] = 5 hours, read-out: Reserpine antagonism, median effective dose (ED50) after 5 hrs
[6] = 7 hours, read-out: Reserpine antagonism, median effective dose (ED50) after 7 hrs

Molecule `Cc1ccc(C2CN(C)Cc3sc(CO)cc32)cc1` (stereo not drawn) [2-(Hydroxy-methyl)-6-methyl-4-p-tolyl-4,5,6,7-tetrahydrothieno[2,3-c]pyridine] has an LD50 [1] of ~740 mg/kg, an ED50 [2, 3] of 2.5 mg/kg and an ED50 [2, 4] of 0.24 mg/kg. For the same molecule, the ED50 [2, 5] was 2.5 mg/kg and the ED50 [2, 6] was > 10 mg/kg.

For `CN1Cc2sc(CN3CCOCC3)cc2C(c2ccc(Br)cc2)C1` (stereo not drawn) [2-(Morpholino-methyl)-4-(p-bromo-phenyl)-6-methyl-4,5,6,7-tetrahydro-thieno[2,3-c]pyridine], the LD50 [1] was > 640 mg/kg, the ED50 [2, 3] was 22 mg/kg and the ED50 [2, 4] was 1.7 mg/kg. It also gave an ED50 [2, 5] of 1.7 mg/kg and an ED50 [2, 6] of 10 mg/kg.

For `CN1Cc2sc(CN3CCOCC3)cc2C(c2ccc(Cl)cc2)C1` (stereo not drawn) [2-(Morpholino-methyl)-4-(p-chloro-phenyl)-6-methyl-4,5,6,7-tetrahydro-thieno[2,3-c]pyridine], the LD50 [1] was > 640 mg/kg, the ED50 [2, 3] was > 40 mg/kg and the ED50 [2, 4] was 2.6 mg/kg. The ED50 [2, 5] was 12 mg/kg and the ED50 [2, 6] was 2.5 mg/kg.
